Results reported in patent US8048896B2, “Methods for inhibiting and breaking AGE complex formation” (Cell Viable Corporation, priority 2005, dated 2011).

Legend:
[1] = test system: AGE crosslinks in tail tendon collagen of old diabetic rats; test: Fluorescence of collagen treated with AGE-breakers after papain digestion; format: biochemical, rat; details: FIG. 4; particularly at 1.0 and 10 mM concentrations
Experimental: (§1) The effects of these compounds on AGE crosslinks that form in vivo in tail tendon collagen of old diabetic rats were determined. Non-diabetic rats served as controls. P values were calculated using unpaired Student's t-test. The extent of AGE crosslinking of tail tendon collagen formed in vivo was assessed by acid insolubility (FIG. 2, * P<0.05 vs. non-diabetic control; ** P<0.05 vs. diabetic control) and fluorescence measurements of collagen treated with AGE-breakers after pepsin (FIG. 3; * P<0.05 vs. diabetic control) or papain digestion (FIG. 4; * P<0.05 vs. non-diabetic control; ** P<0.05 vs. diabetic control). In each of FIGS. 2-4, panel A is LR-20, panel B is LR-23, panel C is LR-99 and panel D is LR-102.

[2] = test system: AGE crosslinks in tail tendon collagen of old diabetic rats; test: Fluorescence of collagen treated with AGE-breakers after pepsin digestion; format: biochemical, rat; details: FIG. 3; particularly at 1.0 and 10 mM concentrations
Experimental: as §1

[3] = test system: AGE crosslinks in tail tendon collagen of old diabetic rats; test: Acid solubility of tail tendon collagen treated with AGE-breakers; format: biochemical, rat; details: FIG. 2; particularly at 1.0 and 10 mM concentrations
Experimental: as §1

[4] = test system: AGE-derived protein crosslinks; details: in vitro and in vivo; cited from earlier work
[5] = biological target: AGE formed on glycated bovine serum albumin (Bos taurus, UniProt P02769); test: AGE-breaking ELISA on ribose-glycated bovine serum albumin; format: biochemical; details: FIG. 1; various concentrations, 48 hr at 37° C.; ELISA with polyclonal anti-AGE-RNAse antibodies
Sequence of AGE formed on glycated bovine serum albumin (P02769 25-607): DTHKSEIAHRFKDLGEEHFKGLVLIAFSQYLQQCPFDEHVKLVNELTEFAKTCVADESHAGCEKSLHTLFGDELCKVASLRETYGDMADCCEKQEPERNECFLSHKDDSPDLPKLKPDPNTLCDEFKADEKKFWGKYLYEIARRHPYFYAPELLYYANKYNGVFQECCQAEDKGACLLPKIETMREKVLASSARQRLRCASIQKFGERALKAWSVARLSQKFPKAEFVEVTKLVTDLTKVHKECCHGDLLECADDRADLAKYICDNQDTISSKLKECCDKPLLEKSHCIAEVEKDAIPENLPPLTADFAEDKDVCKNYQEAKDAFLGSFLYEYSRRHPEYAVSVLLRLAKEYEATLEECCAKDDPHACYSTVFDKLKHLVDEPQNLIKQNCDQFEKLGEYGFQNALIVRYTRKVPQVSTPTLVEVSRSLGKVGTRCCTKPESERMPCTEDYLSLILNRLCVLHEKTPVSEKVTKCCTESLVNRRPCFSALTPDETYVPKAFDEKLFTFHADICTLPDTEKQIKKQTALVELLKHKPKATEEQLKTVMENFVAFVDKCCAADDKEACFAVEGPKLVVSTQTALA
Experimental: Specifically, bovine serum albumin (10 mg/mL) was incubated with 0.5 M ribose in 0.4 M phosphate buffer, pH 7.5, containing 0.02% sodium azide for 24 hr at 37° C., followed by extensive dialysis for 24 hr at 4° C. to remove excess and reversibly bound ribose. AGE formation was then initiated by incubating 0.1 mg/mL (or 1:100 dilution in phosphate buffer) of the glycated protein at 37° C. Then the AGE formed were treated with various concentrations for the compounds for 48 hr at 37° C. Aliquots from each sample were taken and diluted with 0.1 M sodium carbonate buffer to 50 μg/mL. Then 50 μl of the diluted sample was added to wells of a 96-well polystyrene plate (1.0 μg/well) and incubated overnight at room temperature. The plates were washed thrice with PBS-0.05% Tween and blocked for 1 hr with Superblock blocking buffer. The amount of AGE in each treatment was then quantified by ELISA using polyclonal anti-AGE-RNAse antibodies. Percent AGE-breaking was calculated as: (100*(mean OD wells of control-mean OD wells with compound/mean OD wells control).

Structure (SMILES) | fluorescence associated with AGE crosslinks after papain digestion [1] | fluorescence associated with AGE crosslinks after pepsin digestion [2] | collagen solubility in weak acetic acid (acid insolubility) [3] | cleavage of AGE-derived protein crosslinks [4] | Percent AGE-breaking [5]
CC(C)(Oc1ccc(NC(=O)Nc2cc(Cl)cc(Cl)c2)cc1)C(=O)Nc1ccc(C(=O)O)cc1 [LR-99, 4-(3,5-dichlorophenylureidophenoxyisobutyryl)-4 amino benzoic acid] | reduction of fluorescence | reduction of fluorescence | increased collagen solubility |  | 
O=C(C[n+]1ccsc1)c1ccccc1.[Br-] [N-phenacylthiazolium bromide (PTB), N-phenacylthiazolium bromide] |  |  |  | selectively cleaves AGE-derived protein crosslinks in vitro and in vivo | 
CC(C)(Oc1ccc(NC(=O)c2ccc(Cl)cc2)cc1)C(=O)N[C@@H](CSSC[C@H](NC(=O)C(C)(C)Oc1ccc(NC(=O)c2ccc(Cl)cc2)cc1)C(=O)O)C(=O)O [LR-20, L-bis-[4-(4-chlorobenzamidophenoxyisobutyryl)cystine]] | reduction of fluorescence | reduction of fluorescence | increased collagen solubility |  | 
CC(C)(Oc1ccc(N=Cc2ccc(C=Nc3ccc(OC(C)(C)C(=O)O)cc3)cc2)cc1)C(=O)O [LR-102, 1,4-benzene-bis-(4-methyleneaminophenoxyisobutyric acid)] | reduction of fluorescence | reduction of fluorescence | increased collagen solubility |  | 
Cc1ncc(CO)c(CN)c1O [pyridoxamine] |  |  |  |  | concentration dependent AGE-breaking properties
CC(C)(Oc1ccc(NC(=O)Nc2cc(Cl)cc(Cl)c2)cc1)C(=O)NC1(C(=O)O)CCCCC1 [LR-23, 4-(3,5-dichlorophenylureido)phenoxyisobutyryl-1-amidocyclohexane-1-carboxylic acid] | reduction of fluorescence | reduction of fluorescence | increased collagen solubility |  | 
